Measurements from publication PMC8151276, “An Integrated Approach toward NanoBRET Tracers for Analysis of GPCR Ligand Engagement” (Molecules, 2021).

Target: T1, CHRM4 (Homo sapiens, UniProt P08173)
T1 construct: purchased Promega (in-house HiBiT-GPCR construct library, NanoBRET)
T1 sequence (P08173 1-479): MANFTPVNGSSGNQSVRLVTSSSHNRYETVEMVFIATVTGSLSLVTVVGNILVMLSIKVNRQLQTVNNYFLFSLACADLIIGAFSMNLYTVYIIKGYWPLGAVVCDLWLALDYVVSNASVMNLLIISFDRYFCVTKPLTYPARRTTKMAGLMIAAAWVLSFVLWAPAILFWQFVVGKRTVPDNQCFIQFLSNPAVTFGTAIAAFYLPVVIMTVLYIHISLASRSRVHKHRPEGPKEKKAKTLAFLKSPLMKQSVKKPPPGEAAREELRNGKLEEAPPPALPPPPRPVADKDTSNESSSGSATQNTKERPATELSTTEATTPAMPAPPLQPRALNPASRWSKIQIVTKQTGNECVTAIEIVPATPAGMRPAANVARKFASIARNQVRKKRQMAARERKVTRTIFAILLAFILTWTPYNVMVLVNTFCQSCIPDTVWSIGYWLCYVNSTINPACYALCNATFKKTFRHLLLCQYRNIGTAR
Assay: NanoBRET screen HiBiT-CHRM4 in HEK293
Assay type: binding
Method: Each tracer candidate was screened across the entire library of HiBiT-GPCR constructs using NanoBRET as the detection modality. As depicted in Figure 4A, the specificity of interactions was evaluated through decrease in BRET due to competitive displacement of a bound tracer by excess parental compound. Each tracer was analyzed for binding to each HiBiT-GPCR fusion in the absence and in the presence of competing parental compound. Briefly, HEK293 cells were transfected with HiBiT-GPCR constructs diluted into promoterless DNA to reduce expression and maximize translocation to the cell surface. Each tracer candidate was then screened at concentrations of 1 μM and 0.1 μM across cells expressing these fusions. Cells were treated for 1.5 h with tracer either alone or in the presence of 20 μM competing parental compound (i.e., control). BRET was measured upon addition of purified LgBiT and subsequent complementation with HiBiT genetically fused to a GPCR. The specificity of interactions was assessed through a decrease in BRET signal due to competitive displacement of the bound tracer. To further gauge the robustness of these interactions, the fold response over the control (i.e., BRETtracer/BRETcontrol) was calculated. We chose a 1.5-fold response, which translates to ≥7-fold signal over noise as the minimal threshold required to score an interaction as positive.
HiBiT-GPCR DNA constructs were diluted in 10 mM Tris pH 8 to a final concentration of 0.01 μg/μL, arrayed in 96-well plates and stored at −20 °C. For transfection, HEK293 cells were suspended in Opti-MEM (without phenol red) supplemented with 2% fetal bovine serum (Seradigm) and 100 units/mL penicillin–streptomycin (Gibco) at a final concentration of 220,000 cells/mL and dispensed into white 96-well plates at 90 μL/well. Subsequent transfections and screens were carried using an Agilent Bravo Automated Liquid Handling Platform. First, the 96-well HiBiT DNA arrays were diluted 25-fold in Opti-MEM (without serum or phenol red) to a final concentration of 0.0004 μg/μL and 20 μL of the diluted DNAs were transferred into new 96-well plates. Next, promoterless carrier DNA (1 μg/μL) was diluted 25-fold (0.04 μg/μL) and then dispensed into the diluted arrays at 20 μL/well. Following brief mixing, Viafect transfection reagent (Promega) diluted 16-fold into Opti-MEM was dispensed into the plates at 40 μL/well. After mixing by pipetting, plates were incubated for 10 min on the pipetting station deck. The DNA-transfection reagent complexes were then added to plates containing cells. To facilitate the screen, 10 μL of DNA-transfection reagent complexes were added in duplicates to the top 4 and bottom 4 rows, resulting in two identical 48-well arrays per plate. Plates with transfected cells were incubated for 18–20 h at 37 °C/5% CO2. A screen of each tracer across the entire library using two different concentrations requires duplicate plates of transfected cells. Depending on the number of tracers being screened, transfections can be scaled up using the same ratios. The next day, for each tracer, four 20× screening solutions in tracer dilution buffer (Promega) were prepared: two duplicates at final concentration of 20 μM and two duplicates at a final concentration of 2 μM. […] The four resulting solutions were diluted 4-fold in Opti-MEM without serum or phenol red to generate 5× solutions (5 µM and 0.5 µM tracer +/− 100 μM competing compound). To screen the library, a BioTek MultiFlo FX liquid dispenser was used to dispense 22.5 µL of tracer solution to the top 4 rows and 22.5 µL tracer + competing compound solution to the 4 bottom rows. Plates were briefly mixed on an orbital shaker and incubated for 1.5 h at room temperature. […] Plates were briefly mixed on an orbital shaker and incubated for 15 min to allow complementation.

Row | Compound | NanoBRET Fold Response (CHRM4, tracer 0.1μM) | NanoBRET Fold Response (CHRM4, tracer 1μM) | also measured
1 | CCOC(=O)c1cc(C#N)c(N2CCC(C(=O)NS(=O)(=O)Cc3ccccc3/C=C/C(=O)NCCNC(=O)CCc3ccc4n3[B-](F)(F)[N+]3=C(c5ccc[nH]5)C=CC3=C4)CC2)nc1C [AZD1283-1-NB590] | – | – | NanoBRET Fold Response (CHRM4, 0.1μM): 0.97; NanoBRET Fold Response (CHRM4, 1μM): 1.06
2 | N#CN=C(NCCCOc1cccc(CN2CCCCC2)c1)NCCNC(=O)CCOCCOCCOCCOCCNC(=O)CCc1ccc2n1[B-](F)(F)[N+]1=C(c3ccc[nH]3)C=CC1=C2 [Aminopotentidine-2-NB590] | 1.17 | 1.39 | –
3 | CN(C)CCC=C1c2ccccc2CCc2ccc(C(=O)NCCNC(=O)CCOCCOCCOCCOCCNC(=O)CCc3ccc4n3[B-](F)(F)[N+]3=C(c5ccc[nH]5)C=CC3=C4)cc21 [Amitriptyline-a-2-NB590] | – | – | NanoBRET Fold Response (tracer at 1μM): 1.45
4 | CN(C)CCC=C1c2ccccc2CCc2ccc(C(=O)NCCNC(=O)CCOCCOCCOCCOCCNC(=O)CCc3ccc4n3[B-](F)(F)[N+]3=C(c5ccc[nH]5)C=CC3=C4)cc21 [Amitriptyline-b-2-NB590] | – | – | NanoBRET Fold Response (tracer at 0.1μM, listed as amitriptyline-b-2-NB590): 3.79; NanoBRET Fold Response (tracer at 1μM, listed as amitriptyline-b-2-NB590): 1.75
5 | CN(CCC=C1c2ccccc2CCc2ccccc21)C(=O)CCOCCOCCOCCOCCNC(=O)CCc1ccc2n1[B-](F)(F)[N+]1=C(c3ccc[nH]3)C=CC1=C2 [Amitriptyline-e-2-NB590] | – | – | NanoBRET Fold Response (tracer at 1μM): 1.25
6 | COc1ccc2c(n1)c(CCNC(C)=O)cn2CCNC(=O)CCc1ccc2n1[B-](F)(F)[N+]1=C(c3ccc[nH]3)C=CC1=C2 [Azamelatonin-1-NB590] | – | – | NanoBRET Fold Response (0.1μM tracer): 0.74; NanoBRET Fold Response (1μM tracer): 0.98
7 | COc1ccc2[nH]c(-c3ccc(CNC(=O)CCOCCOCCOCCOCCNC(=O)CCc4ccc5n4[B-](F)(F)[N+]4=C(c6ccc[nH]6)C=CC4=C5)cc3)c(CCNC(C)=O)c2n1 [AzomelatoninICO9-2-NB590] | – | – | NanoBRET Fold Response (0.1μM tracer): 0.77; NanoBRET Fold Response (1μM tracer): 0.98
8 | O=C(CCOCCOCCOCCOCCNC(=O)CCc1ccc2n1[B-](F)(F)[N+]1=C(c3ccc[nH]3)C=CC1=C2)NCCCN1CCN(C2=Nc3cc(Cl)ccc3Nc3ccccc32)CC1 [Clozapine-a-2-NB590] | – | – | NanoBRET Fold Response (CHRM4, 0.1μM tracer): 1.55; NanoBRET Fold Response (CHRM4, 1μM tracer): 1.90
9 | CN1CCN(C2=Nc3cc(Cl)ccc3Nc3ccc(CNC(=O)CCOCCOCCOCCOCCNC(=O)CCc4ccc5n4[B-](F)(F)[N+]4=C(c6ccc[nH]6)C=CC4=C5)cc32)CC1 [Clozapine-b-2-NB590] | – | – | NanoBRET Fold Response (CHRM4, 0.1μM tracer): 1.48; NanoBRET Fold Response (CHRM4, 1μM tracer): 2.78
10 | CN1CCN(C2=Nc3cc(Cl)ccc3N(CC(=O)NCCOCCOCCOCCOCCNC(=O)CCc3ccc4n3[B-](F)(F)[N+]3=C(c5ccc[nH]5)C=CC3=C4)c3ccccc32)CC1 [Clozapine-c-2-NB590] | – | – | NanoBRET Fold Response (CHRM4, 0.1μM tracer): 0.97; NanoBRET Fold Response (CHRM4, 1μM tracer): 0.98
11 | O=C(CCOCCOCCOCCOCCNC(=O)CCc1ccc2n1[B-](F)(F)[N+]1=C(c3ccc[nH]3)C=CC1=C2)NCCCN1CCN(C2=Nc3ccccc3Oc3ccc(Cl)cc32)CC1 [Loxapine-a-2-NB590] | 1.11 | 1.18 | –
12 | COc1ccccc1N1CCN(CCCCN2C(=O)c3ccc(CNC(=O)CCOCCOCCOCCOCCNC(=O)CCc4ccc5n4[B-](F)(F)[N+]4=C(c6ccc[nH]6)C=CC4=C5)cc3C2=O)CC1 [NAN-190-2-NB590] | 1.18 | 1.17 | –
13 | COc1ccccc1N1CCN(CCCCN2C(=O)c3ccc(CNC(=O)CCOCCNC(=O)c4ccc(CNC(=O)CCc5ccc6n5[B-](F)(F)[N+]5=C(c7ccc[nH]7)C=CC5=C6)cc4)cc3C2=O)CC1 [NAN-190-3-NB590] | 1.30 | 0.66 | –
14 | O=C(CCc1ccc2n1[B-](F)(F)[N+]1=C(c3ccc[nH]3)C=CC1=C2)NCc1ccc(C(=O)NCCOCCC(=O)N[C@@H]2CC[C@@]3(O)[C@H]4Cc5ccc(O)c6c5[C@@]3(CCN4CC3CC3)[C@H]2O6)cc1 [Naltrexone-3-NB590] | 0.66 | 0.79 | –
15 | Cc1cc2c(s1)Nc1ccccc1N=C2N1CCN(CCCNC(=O)CCOCCOCCOCCOCCNC(=O)CCc2ccc3n2[B-](F)(F)[N+]2=C(c4ccc[nH]4)C=CC2=C3)CC1 [Olanzapine-a-2-NB590] | 1.07 | 1.23 | –
16 | O=C(CCc1ccc2n1[B-](F)(F)[N+]1=C(c3ccc[nH]3)C=CC1=C2)NCc1ccc(C(=O)NCCOCCOCCNCC(O)COc2cccc3ccccc23)cc1 (stereo not shown) [Propranolol-3-NB590] | – | – | NanoBRET Fold Response (CHRM4, 0.1μM): 0.96; NanoBRET Fold Response (CHRM4, 1μM): 1.05
17 | O=C(CCc1ccc2n1[B-](F)(F)[N+]1=C(c3ccc[nH]3)C=CC1=C2)NCCOCCOCCNC(=O)OCCOCCN1CCN(C2=Nc3ccccc3Sc3ccccc32)CC1 [Quetiapine-a-2-NB590] | 1.65 | 2.06 | –
18 | Cc1nc2n(c(=O)c1CCN1CCC(c3noc4cc(F)ccc34)CC1)CCCC2OC(=O)NCCOCCOCCOCCOCCNC(=O)CCc1ccc2n1[B-](F)(F)[N+]1=C(c3ccc[nH]3)C=CC1=C2 (stereo not shown) [Risperidone-2-NB590] | 1.10 | 1.67 | –
19 | CC(C)N(CC[C@H](c1ccccc1)c1cc(CCNC(=O)CCOCCOCCOCCOCCNC(=O)CCc2ccc3n2[B-](F)(F)[N+]2=C(c4ccc[nH]4)C=CC2=C3)ccc1O)C(C)C [Tolterodine-2-NB590] | 2.75 | 1.53 | –
20 | CC(C)N(CC[C@H](c1ccccc1)c1cc(CCNC(=O)c2ccc(CNC(=O)CCc3ccc4n3[B-](F)(F)[N+]3=C(c5ccc[nH]5)C=CC3=C4)cc2)ccc1O)C(C)C [Tolterodine-BZ-NB590] | 3.69 | 2.39 | –
21 | CCCn1c(=O)c2[nH]c(-c3ccc(OCC(=O)NCCNC(=O)CCOCCNC(=O)c4ccc(CNC(=O)CCc5ccc6n5[B-](F)(F)[N+]5=C(c7ccc[nH]7)C=CC5=C6)cc4)cc3)nc2n(CCC)c1=O [XAC-3-NB590] | 0.78 | 1.10 | –
